According to PubChem BioAssay (NCI):
Values joined by “and” are separate entries in the source; they are usually repeats but may differ in a detail not shown here. Equal entries are not always repeated.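 Growth conditions: 96-well plates. Treatment: test compound, 48 hours, 5 concentrations. Analysis: linear interpolation between bracketing concentrations; unreached endpoints set to highest concentration. The concentration for 50% growth inhibition is given as GI50. The concentration for full growth arrest is given as TGI.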

Legend:
Assay in all cases: DTP human tumour cell line panel, 48 h
[1] = tested on: M19-MEL melanoma
[2] = tested on: SNB-78 CNS
[3] = tested on: MCF7 breast
[4] = tested on: MDA-MB-435
[5] = tested on: NCI/ADR-RES ovarian
[6] = tested on: PC-3 prostate

SMILES | TGI [1] | TGI [2] | GI50 [3] | TGI [3] | GI50 [4] | TGI [4] | GI50 [5] | TGI [5] | GI50 [6] | TGI [6]
COc1cccc(/C=C2\CCC(C)(CN(C)C)C2=O)c1 (stereo unspecified) | > 100 µM | > 100 µM | – | – | – | – | – | – | – | –
Cc1ncc(C(=O)Nc2ccc(CN3CCN(C)CC3)c(C(F)(F)F)c2)cc1C#Cc1cnc(NC2CC2)c2ncccc12 | – | – | 605 nM | 1.18 µM | 513 nM | 0.963 µM | 2.32 µM | 5.28 µM | 597 nM | 1.17 µM
Cn1c(/C(C#N)=C/c2ccc3ccccc3c2)cc2ccccc21 | – | – | 94.6 nM | > 100 µM | 31.7 nM | 0.109 µM | 0.0648 µM | > 100 µM | 220 nM | > 100 µM
CCSc1nc(N)c2cn[nH]c2n1 | – | – | 23000 nM | 60.3 µM | 30800 nM | > 100 µM | 28.4 µM | 85.6 µM | 19800 nM | 63.5 µM
CCC1=C[C@@H]2CN(C1)Cc1c([nH]c3ccccc13)[C@@](C(=O)OC)(c1cc3c(cc1OC)N(C)[C@H]1[C@@](O)(C(=O)OC)[C@H](OC(C)=O)[C@]4(CC)[C@@H]5C[C@@H]5CN5CC[C@]31[C@@H]54)C2 | – | – | < 5 nM | 5.44 µM and 12.6 µM | – | – | 0.111 µM and 0.662 µM | 2.82 µM and 22.6 µM | < 5 nM | 6.54 µM and 15 µM
CCN(CC)CCNC(=O)c1c(C)[nH]c(/C=C2\C(=O)Nc3ccc(F)cc32)c1C | – | – | 1930 nM and 2230 nM and 2050 nM | > 10 µM and 4.88 µM and 11.9 µM | 2800 nM and 1630 nM and 1780 nM | > 10 µM and 5.1 µM and 8.49 µM | > 10 µM and 4.48 µM and 5.31 µM | > 10 µM and 13.4 µM and 17.9 µM | 1840 nM and 3820 nM and 2900 nM | > 10 µM and 20 µM and 14.5 µM
O=c1c2c3c(sc2n2c(-c4cc(-c5ccccc5)nn4-c4ccccc4)nnc2n1Cc1ccccc1)CCCC3 | – | – | > 100000 nM | > 100 µM | > 100000 nM | > 100 µM | > 100 µM | > 100 µM | > 100000 nM | > 100 µM
CCCCCCCCCCCC[n+]1ccccc1 (tested in a mixture with another compound) | – | – | 1040 nM | 5.5 µM | 678 nM | 2.47 µM | 14.4 µM | 52.2 µM | 208 nM | 0.937 µM
c1ccc(Cn2cnc3ccc(-c4nc(-c5ccc6c(c5)ncn6C5CCCCC5)cn5ccnc45)cc32)cc1 | – | – | 2720 nM | > 100 µM | – | – | 1.98 µM | 5.43 µM | 1970 nM | 7.55 µM
C=C1CC2(OC1=O)C(=O)N(CCCN1C(=O)C3(CC(=C)C(=O)O3)c3ccccc31)c1ccccc12 (stereo unspecified) | – | – | 1400 nM | 4.45 µM | 1840 nM | 4.2 µM | 2.52 µM | 9.44 µM | 2790 nM | 10.3 µM
O=S(=O)(CCOCc1ccc(-c2ccc3ncnc(Nc4ccc(OCc5cccc(F)c5)c(Cl)c4)c3c2)o1)c1ccccc1 | – | – | > 25000 nM | > 25 µM | > 25000 nM | > 25 µM | > 25 µM | > 25 µM | > 25000 nM | > 25 µM
CC1(C)N=C(N)N=C(N)N1c1ccc(OCC(=O)Nc2ccccc2)c(Cl)c1 | – | – | 886 nM | > 100 µM | 522 nM | > 100 µM | > 100 µM | > 100 µM | 123 nM | > 66.5 µM
